# According to article PMC5338263, “GS-5734 and its parent nucleoside analog inhibit Filo-, Pneumo-, and Paramyxoviruses” (Scientific Reports, 2017):
# “Also recorded” adds a separate entry of the source. Read-outs that look alike come from different tables or passages of the source.
# Legend:
# AHFV 200300001 = test: organism not typed; conditions: A549
# [1] = test system: RSV Rec. rgRSV224 (A2) (respiratory syncytial virus); test: in vitro; conditions: human
# [2] = test system: NiV Rec. M-GFP2AM (Nipah virus); test: in vitro; conditions: human
# EBOV Rec. Mayinga-GFP = test: microbe, parasite or virus in culture; conditions: Zaire ebolavirus, Huh-7
# NiV M-1999 [3] = test: microbe, parasite or virus in culture; conditions: Henipavirus nipahense
# [4] = test system: EBOV Rec. Mayinga-Gluc (Ebola virus); test: in vitro; conditions: human
# EBOV Rec. Makona-ZSG [5] = test: microbe, parasite or virus in culture; conditions: Zaire ebolavirus, Huh-7
# [6] = Cell viability assay (CellTiter-Glo 2.0), Huh7; conditions: human, uninfected Huh7 cells
# [7] = test system: EBOV Rec. Mayinga-GFP (Ebola virus); test: in vitro; conditions: human
# hPIV3 Rec. JS-GFP [8] = test system: hPIV3 Rec. JS-GFP
# OHFV Bogoluvovska = test: microbe, parasite or virus in culture; conditions: Omsk hemorrhagic fever virus, A549
# EBOV Makona = test: microbe, parasite or virus in culture; conditions: Zaire ebolavirus
# [9] = test system: MARV Rec. Bat371-GFP (Marburg virus); test: in vitro; conditions: human
# MuV IA 2006 = test: microbe, parasite or virus in culture; conditions: Mumps orthorubulavirus, HeLa
# HCV = conditions: cited from earlier work
# MARV Rec. Bat371-GFP [10] = test system: MARV Rec. Bat371-GFP
# [11] = test system: MuV IA 2006 (Mumps virus); test: in vitro; conditions: human
# [12] = test system: EBOV Rec. Makona-ZSG (Ebola virus); test: in vitro; conditions: human
# NiV M-1999 (Nipah virus) = test: in vitro; conditions: human
# VSV New Jersey = test: microbe, parasite or virus in culture; type: cell-based, Vesicular Stomatitis virus
# KFDV P9605 = test: microbe, parasite or virus in culture; conditions: Kyasanur Forest disease virus, A549
# [13] = test system: hPIV3 Rec. JS-GFP (parainfluenza type 3 virus); test: in vitro; conditions: human
# RSV Rec. rgRSV224 (A2) = test: microbe, parasite or virus in culture; conditions: human respiratory syncytial virus, HeLa
# [14] = test system: NiV Rec. M-Luc2AM (Nipah virus); test: in vitro; conditions: human
# NiV Rec. M-GFP2AM [15] = test system: NiV Rec. M-GFP2AM
# CCHF Rec. IbAr 10200 = test: organism not typed; type: cell-based, Crimean Congo Hemorrhagic Fever virus
# [16] = test system: MV Rec. rMV^EZGFP(3) (Measles virus); test: in vitro; conditions: human
# MARV Rec. Bat371-GFP [17] = test: organism not typed; conditions: Huh-7
# [18] = test system: reporter and wild-type filo-, pneumo-, and paramyxoviruses
# NiV Rec. M-Luc2AM [19] = test: microbe, parasite or virus in culture; conditions: Henipavirus nipahense, HeLa
# LASV Josiah = test: microbe, parasite or virus in culture; conditions: Mammarenavirus lassaense, Huh-7
# hPIV3 Rec. JS-GFP [20] = test: microbe, parasite or virus in culture; conditions: Human respirovirus 3, HeLa
# NiV Rec. M-Luc2AM [21] = test system: NiV Rec. M-Luc2AM
# NiV B-2004 = test: microbe, parasite or virus in culture; conditions: Henipavirus nipahense
# EBOV Rec. Mayinga-Gluc = test: microbe, parasite or virus in culture; conditions: Zaire ebolavirus, Huh-7
# NiV Rec. M-GFP2AM [22] = test: microbe, parasite or virus in culture; conditions: Henipavirus nipahense, HeLa
# EBOV Rec. Makona-ZSG [23] = test system: EBOV Rec. Makona-ZSG
# NiV M-1999 [24] = test system: NiV M-1999
# [25] = test system: EBOV Makona (Ebola virus); test: in vitro; conditions: human
# [26] = Vesicular stomatitis virus, HeLa
structure (smiles),measurement,setting,value
N#C[C@@]1(c2ccc3c(N)ncnn23)O[C@H](CO)[C@@H](O)[C@H]1O [Nuc],EC50,AHFV 200300001,49900 ± 2060 nM
same,EC90,AHFV 200300001,> 150000 nM
same,selectivity ratio,[1],79
same,selectivity ratio,[2],22
same,EC50,EBOV Rec. Mayinga-GFP,1610 ± 120 nM
same,EC90,EBOV Rec. Mayinga-GFP,6700 nM
same,EC90,NiV M-1999 [3]; HeLa,1400 nM
same,selectivity ratio,[4],16
same,EC50,EBOV Rec. Makona-ZSG [5],1280 ± 140 nM
same,EC90,EBOV Rec. Makona-ZSG [5],3300 nM
same,EC50,MV Rec. rMV^EZGFP(3),1000 nM
same,CC50 at 72 h,[6],> 50000 nM
same,selectivity ratio,[7],31
same,EC50,hPIV3 Rec. JS-GFP [8],510 nM
same,EC50,OHFV Bogoluvovska,50600 nM
same,EC90,OHFV Bogoluvovska,> 350000 nM
same,EC50,EBOV Makona; Huh-7,1020 nM
same,EC90,EBOV Makona; Huh-7,2500 nM
same,selectivity ratio,[9],26
same,EC50,MuV IA 2006,7000 to 12000 nM
same,EC90,MuV IA 2006,26300 nM
same,antiviral activity (active or not),HCV,active
same,antiviral activity (active or not),HCV; listed as GS-441524,shown to have activity
same,EC50,MARV Rec. Bat371-GFP [10],1900 nM
same,selectivity ratio,[11],5
same,selectivity ratio,[12],38
same,selectivity ratio,NiV M-1999 (Nipah virus),102
same,EC50,VSV New Jersey,little to no antiviral activity; also recorded: No inhibition
same,EC50,VSV New Jersey; [26],> 50000 nM
same,EC50,KFDV P9605,46300 nM
same,EC90,KFDV P9605,> 350000 nM
same,selectivity ratio,[13],98
same,EC50,RSV Rec. rgRSV224 (A2),630 nM
same,EC90,RSV Rec. rgRSV224 (A2),2200 nM
same,selectivity ratio,[14],33
same,EC50,NiV Rec. M-GFP2AM [15],2200 nM
same,EC50,CCHF Rec. IbAr 10200,little to no antiviral activity; also recorded: No inhibition
same,EC50,CCHF Rec. IbAr 10200; Huh-7,> 50000 nM
same,selectivity ratio,[16],50
same,EC50,MARV Rec. Bat371-GFP [17],1860 ± 130 nM
same,EC90,MARV Rec. Bat371-GFP [17],4600 nM
same,EC50 lower than the 50% cytotoxic concentrations,[18],at least 16 fold
same,EC50,NiV Rec. M-Luc2AM [19],1570 ± 780 nM
same,EC90,NiV Rec. M-Luc2AM [19],5700 nM
same,EC50,LASV Josiah,> 50000 nM
same,EC50,hPIV3 Rec. JS-GFP [20],520 ± 80 nM
same,EC90,hPIV3 Rec. JS-GFP [20],1000 nM
same,EC50,NiV Rec. M-Luc2AM [21],1500 nM
same,EC50,NiV B-2004,2460 nM
same,EC50,EBOV Rec. Mayinga-Gluc,3100 nM
same,EC90,EBOV Rec. Mayinga-Gluc,11000 nM
same,EC50,NiV Rec. M-GFP2AM [22],2230 ± 1400 nM
same,EC90,NiV Rec. M-GFP2AM [22],4000 nM
same,EC50,EBOV Rec. Makona-ZSG [23],1300 nM
same,reduction in virus yield,NiV M-1999 [24],greater than 5
same,selectivity ratio,[25],50
CCC(CC)COC(=O)[C@H](C)N[P@](=O)(OC[C@H]1O[C@@](C#N)(c2ccc3c(N)ncnn23)[C@H](O)[C@@H]1O)Oc1ccccc1 [GS-5734],EC50,AHFV 200300001,4150 ± 480 nM
same,EC90,AHFV 200300001,17600 nM
same,selectivity ratio,[1],395
same,selectivity ratio,[2],286
same,EC50,EBOV Rec. Mayinga-GFP,66 nM
same,EC90,EBOV Rec. Mayinga-GFP,203 nM
same,EC50,NiV M-1999 [3],47 nM
same,EC90,NiV M-1999 [3],83 nM
same,selectivity ratio,[4],476
same,EC50,EBOV Rec. Makona-ZSG [5],13.6 ± 1 nM
same,EC90,EBOV Rec. Makona-ZSG [5],45 nM
same,EC50,MV Rec. rMV^EZGFP(3),37 nM
same,CC50 at 72 h,[6],> 10000 nM
same,selectivity ratio,[7],151
same,EC50,hPIV3 Rec. JS-GFP [8],18 nM
same,EC90,OHFV Bogoluvovska,3900 nM
same,EC50,EBOV Makona; Macrophage,3.4 nM
same,EC90,EBOV Makona; Macrophage,19 nM
same,selectivity ratio,[9],714
same,EC50,MuV IA 2006,790 nM
same,EC90,MuV IA 2006,3400 nM
same,inhibition of virus,"HCV; not tested in this paper, no reference given",inhibited
same,EC50,MARV Rec. Bat371-GFP [10],14 nM
same,selectivity ratio,[11],10
same,selectivity ratio,[12],714
same,selectivity ratio,NiV M-1999 (Nipah virus),180
same,EC50,VSV New Jersey,not inhibited; also recorded: No inhibition
same,EC50,VSV New Jersey; [26],> 10000 nM
same,EC90,KFDV P9605,3400 nM
same,selectivity ratio,[13],461
same,EC50,RSV Rec. rgRSV224 (A2),21.1 ± 1.1 nM
same,EC90,RSV Rec. rgRSV224 (A2),59 nM
same,selectivity ratio,[14],184
same,EC50,NiV Rec. M-GFP2AM [15],29 nM
same,EC50,CCHF Rec. IbAr 10200,minimal to no antiviral activity; also recorded: No inhibition
same,EC50,CCHF Rec. IbAr 10200; Huh-7,> 10000 nM
same,selectivity ratio,[16],224
same,EC50,MARV Rec. Bat371-GFP [17],13.9 ± 0.3 nM
same,EC90,MARV Rec. Bat371-GFP [17],47 nM
same,EC50 lower than the 50% cytotoxic concentrations,[18],≥ 150 fold
same,higher antiviral potency relative to Nuc,[18],10 to 100 fold
same,EC50,NiV Rec. M-Luc2AM [19],44.9 ± 1.8 nM
same,EC90,NiV Rec. M-Luc2AM [19],126 nM
same,EC50,LASV Josiah,4490 ± 480 nM
same,EC90,LASV Josiah,5100 nM
same,EC50,hPIV3 Rec. JS-GFP [20],17.7 ± 3.7 nM
same,EC90,hPIV3 Rec. JS-GFP [20],350 nM
same,EC50,NiV Rec. M-Luc2AM [21],45 nM
same,EC50,NiV B-2004,32.4 ± 2.7 nM
same,EC90,NiV B-2004,106 nM
same,EC50,EBOV Rec. Mayinga-Gluc,20.7 nM
same,EC90,EBOV Rec. Mayinga-Gluc,53 nM
same,EC50,NiV Rec. M-GFP2AM [22],28.7 nM
same,EC90,NiV Rec. M-GFP2AM [22],53 nM
same,EC50,EBOV Rec. Makona-ZSG [23],14 nM
same,reduction in virus yield,NiV M-1999 [24],greater than 4
same,selectivity ratio,[25],666
